The values that follow come from patent publication US9557338B2 (SIGNAL PHARMACEUTICALS, LLC, priority 2012, dated 2017).

Read-outs that look alike come from different tables or passages of the source. Some results are limits rather than exact numbers.

Holding throughout (format): cell-based
One test relates to S6RP(S235/S236). Nature of the test: Inhibition of S6RP(S235/S236) phosphorylation in cell lines. The following applies: Homo sapiens, read-out: IC50 for inhibition of S6RP(S235/S236) phosphorylation.
The subject of a further test is Akt(S473). Nature of the test: Inhibition of Akt(S473) phosphorylation in cell lines. The note with it: data not shown.
In the next test the test system is Phospho-4E-BP1(T46). Nature of the test: Luminex multiplex assay, Phospho-4E-BP1(T46). The following applies: not inhibited up to concentrations tested; read-out: inhibition of 4E-BP1(T46) phosphorylation. An excerpt:
Determination of Phospho-GSK3β(S9), Phospho-PRAS40(T246) and Phospho-4E-BP1(T46) and the Effect of Compound 1 or Rapamycin.
The multiplex Luminex assay format differs from conventional enzyme-linked immunosorbent assay (ELISA) in that the multiplex capture antibody is attached to a polystyrene bead whereas the ELISA capture antibody is attached to the microplate well. The use of the suspension bead-based technology enables the multiplexing capabilities of the Luminex assays. The xMAP® technology uses 5.6 micron polystyrene microspheres, which are internally dyed with red and infrared fluorophores of differing intensities. Each bead is given a unique number, or bead region, allowing differentiation of one bead from another. Beads covalently bound to different specific antibodies can be mixed in the same assay, utilizing a 96-well microplate format. At the completion of the sandwich immunoassay, beads can be read, using the Luminex 100™ or Luminex 200 detection system, in single-file by dual lasers for classification and quantification of each analyte. The Akt-Pathway Phospho 5-plex kit used was custom made and includes the ability to simultaneously measure p-GSK3β (S9), p-PRAS40(T246), and p-4E-BP1(T46).
Cells were plated at the required density. The cells were treated with either Compound 1 or rapamycin over a range of concentrations for 1 hour in 5% CO2 at 37° C. Compound 1 and rapamycin were used at the same concentrations as for the proliferation assay. As for the cell proliferation assay, a reference standard was included in the assay for PC3 cells and the coefficient of variation for assay of p-GSK3β(S9) was 37.8% (n=30), p-PRAS40(T246) was 27.8% (n=30) and for p4E-BP1(T46) was 13.5% (n=4). For three cell lines (HCT-116, MDA-MB-231 and HT29) in the assay for phosphorylation of GSK3β, PRAS40 and 4E-BP1, IGF-I stimulation (500 ng/mL, recombinant human IGF-I) for the last 10 min of incubation was used. The media was aspirated from the wells and the plate was placed on ice. Then 35 μL of Lysis Buffer was added to each well and incubated on ice for at least 30 minutes. During the incubation, the standard curve for each phosphoprotein was prepared. The standards provided were reconstituted and serial dilutions were prepared according to the manufacturer's instructions. At the end of the cell lysis step, […] of the lysate was transferred to a V-bottom plate and spun at 4° C. at 2000 rpm for 5 minutes. Both the 1× Luminex bead and 1× detector antibody solutions were prepared during this time. The 1× bead solution was vortexed and 25 μL was added into each well of a black round bottom plate. Then 50 μL of the 1× detector antibody was added to each well. Fifty microliters (50 μL) of the prepared standards were added to the designated wells. Then 25 μL of the assay diluent was added to each well designated for the compound-treated cell lysates. At the end of the spin, 25 μL of cell lysate was added to the corresponding wells of the black assay plate. The assay plate was covered with the white plate lid and incubated for 3 hours at room temperature on an orbital shaker.
Approximately 10-15 minutes prior to the end of the first incubation, the secondary antibody solution was prepared according to the vendor's protocol. Goat anti-rabbit R-phycoerythrin red fluorescent protein (RPE) supplied as a 10× concentrate was diluted to generate a 1× goat anti-rabbit RPE stock. The 96-well filter plate was pre-wet with 200 μL of 1× Working wash solution. At the end of the 3 hour incubation, a multichannel pipette was used to transfer the entire contents from each assay well into the wells of the filter plate. The liquid from the wells was removed by aspiration with the vacuum manifold. Then 200 μL of 1× Working wash solution was added into each well. The wash solution was aspirated using the vacuum manifold after 15-30 seconds. This wash step was repeated one time. The bottom of the plate was blotted on clean paper towels to remove residual liquid. […]

For `CO[C@H]1C[C@@H]2CC[C@@H](C)[C@@](O)(O2)C(=O)C(=O)N2CCCC[C@H]2C(=O)O[C@H]([C@H](C)C[C@@H]2CC[C@@H](O)[C@H](OC)C2)CC(=O)[C@H](C)/C=C(\C)[C@@H](O)[C@@H](OC)C(=O)[C@H](C)C[C@H](C)/C=C/C=C/C=C/1C` [rapamycin, reference compound], the IC50 was 0.029 nM in the test on S6RP(S235/S236) (HCT-116, HCT116 cell line); 0.019 nM in the test with S6RP(S235/S236) (PC-3, PC3 cell line); more than 10000 nM with Phospho-4E-BP1(T46). The “inhibition of the phosphorylation of Akt(S473)” value in the test with Akt(S473) is “did not inhibit”.
